Reference: patent US7875648B2, “N-(dibenz(b,f)oxepin-10-ylmethyl)-N-methyl-N-prop-2-ynylamine (omigapil) for the treatment of congenital muscular dystrophy or myopathy resulting from collagen VI deficiency” (Santhera Pharmaceuticals (Schweiz) AG, priority 2006, dated 2011)

What was measured:
[1] = test system: Col6a1-deficient mice, mitochondria in muscle fibers of the diaphragm muscle; assay: Ultrastructural appearance of mitochondria in diaphragm muscle fibers of Col6a1-deficient mice; format: in vivo, mouse; settings: for percentage of myofibers with pathologically altered mitochondria vs vehicle-treated animals: Col6a1-deficient mice, diaphragm, FIG. 2
Description: (§1) Homozyguous col6a1−/− mutants lack triple-helical collagen VI resulting in a phenotype that resembles BM/UCMD in human patients with collagen VI deficiency. Specifically, col6a1−/− mice show histological features of myopathy such as fiber necrosis and phagocytosis and a pronounced variation in fiber diameter. Muscles also show signs of stimulated regeneration of fibers and necrotic fibers are particularly frequent in the diaphragm thereby resembling more the clinical picture of UCMD than BM (Bertini E., Pepe G. (2002) Collagen type VI and related disorders: Bethlem myopathy and Ullrich scleroatonic muscular dystrophy Europ. J. Paediatric Neurology 6:193-198). […] This mitochondrial dysfunction might be caused by slight increase in of sarcolemmal calcium influx followed by calcium overload eventually causing opening of the mitochondrial permeability transition pore (MPTP) and finally apoptosis.
The effect of N-(dibenz(b,f)oxepin-10-ylmethyl)-N-methyl-N-prop-2-ynylammonium maleate (omigapil) was tested on the effect to normalize ultrastructural defects in mitochondria of a Col6a1-deficient mouse model. For this, Col6a1-deficient mice were treated with omigapil as described in Example 1.
The ultrastructural appearance of mitochondria in muscle fibers of the diaphragm muscle was determined and quantified as described (Irwin W A et al. (2003) Mitochondrial dysfunction and apoptosis in myopathic mice with collagen VI deficiency. Nature Genetics 35:367-371).

[2] = test system: homozygous col6a1-/- mice (Col6a1-deficient mouse model), diaphragm muscle; assay: Apoptotic (TUNEL-positive) nuclei in diaphragm muscle of col6a1-/- mice; format: in vivo; settings: 5 days
Description: as §1
The effect of N-(dibenz(b,f)oxepin-10-ylmethyl)-N-methyl-N-prop-2-ynylammonium maleate (omigapil) was tested on the number of apoptotic nuclei in muscle of a Col6a1-deficient mouse model. Starting at 16±4 weeks of age, homozygous col6a1−/− mice were treated with omigapil. For this, omigapil was dissolved in 1% w/v ethanol to a final concentration of 20 μg/ml. Mutant mice received a final dose of 1 mg/kg or 10 mg/kg omigapil given twice daily by gavage following the guidance as described elsewhere (Sagot Y. et al. (2000) An orally active anti-apoptotic molecule (CGP 3466B) preserves mitochondria and enhances survival in an animal model of motoneuron disease. Br. J. Pharmacol. 131:721-728). For comparison col6a1−/− mice received the equivalent amount of vehicle only. After five days of application mice were sacrificed, the diaphragm removed, sectioned and stained for apoptotic nuclei using TUNEL staining. The number of apoptotic nuclei per mm2 area in the diaphragm muscle was determined as described (Irwin W A et al. (2003) Mitochondrial dysfunction and apoptosis in myopathic mice with collagen VI deficiency. Nature Genetics 35:367-371).

[3] = test system: glyceraldehyde-3-phosphate dehydrogenase (GAPDH); settings: reported in J. Biol. Chem. 273:5821-5828; cited from earlier work

Molecule: N-(dibenz(b,f)oxepin-10-ylmethyl)-N-methyl-N-prop-2-ynylammonium maleate [omigapil]
- ultrastructural appearance of mitochondria in muscle fibers of the diaphragm muscle ([1]; Col6a1-deficient mice treated as in Example 1): normalized
- percentage of myofibers with pathologically altered mitochondria vs vehicle-treated animals ([1]; 1 mg/kg (animals B1-B2)): clearly reduced
- percentage of myofibers with pathologically altered mitochondria vs vehicle-treated animals ([1]; 10 mg/kg (animals A1-A3)): clearly reduced
- number of apoptotic nuclei in diaphragm muscle (TUNEL staining) vs vehicle-treated col6a1-/- mice ([2]; 1 mg/kg twice daily by gavage, N=3, FIG. 1): significantly reduced
- number of apoptotic nuclei in diaphragm muscle (TUNEL staining) vs vehicle-treated col6a1-/- mice ([2]; 10 mg/kg twice daily by gavage, N=4, FIG. 1): significantly reduced
- number of apoptotic nuclei in omigapil-treated animals relative to wild-type animal ([2]; omigapil-treated, diaphragm muscle): comparable to the number seen in diaphragm muscle of a wild-type animal

Molecule: C#CCN(C)CC1=Cc2ccccc2Oc2ccccc21 [compound of formula (I), N-(dibenz(b,f)oxepin-10-ylmethyl)-N-methyl-N-prop-2-ynylamine]
- binding to glyceraldehyde-3-phosphate dehydrogenase (GAPDH) [3]: binds to glyceraldehyde-3-phosphate dehydrogenase (GAPDH)
